One data set has as its system herpes simplex virus type 1 (HSV-1) GHSV-UL46 strain. The data set is described as follows: HSV-1 cytopathic effect (CPE) assay. The data set is classed as cell-based. As to conditions: Human alphaherpesvirus 1, Vero C1008, in Chlorocebus sabaeus, 120 h, read-out: HSV-1 cytopathic effect EC50, HSV-1 GHSV-UL46 in Vero E6 cells, 5 days culture, CCK8 readout. The protocol: To evaluate the antiviral activity of compounds against the herpes simplex virus type 1 (HSV-1) GHSV-UL46 strain in the cytopathic effect (CPE) assay.
Virus: HSV-1 GHSV-UL46, ATCC # VR-1544
Cells: African green monkey kidney cell Vero E6, obtained from Wuhan Institute of Virology, Chinese Academy of Sciences.
1.4. The cells were diluted to 1.33×10^5 cells/ml using cytopathic assay medium. The diluted cell suspension was added to a 384-well plate (Corning #3701) by using Multidrop, and 30 μl of the diluted cell suspension (4000 cells) per well were added.
2.2. Compounds were added to cell-inoculated 384-well plates using an ECHO 555 liquid workstation. Eight concentrations were tested in duplicate for each assay compound. For the cell control wells, neither compound nor virus was added. For the virus control wells, no compound was added. The final concentration of DMSO in all the wells was 0.5%.
2.3. The virus was diluted with the assay medium at an inoculation amount of 1.5 TCID90/well, 30 μl. The assay medium was added to the cell control wells with Multidrop, 30 μl per well. Then the diluted virus was added to the compound test wells and the virus control wells with Multidrop, 30 μl per well.
2.4. The cell plates were placed and cultured in a 37° C., CO2 cell incubator for 5 days.
3.2. CCK8 was added to the cell plate with Multidrop, 6 μl per well.
3.4. The absorbance of each well of the cell plate was read with a microplate reader at a wavelength of 450 nm, and 630 nm was used as the reference wavelength. The raw data were obtained by substrating the absorbance at 630 nm from the absorbance at 450 nm (Raw data=OD450-OD630).
4.1. The antiviral activity (% Inhibition) of the assay compound was calculated using the following equation: […]
wherein, Sample is the absorbance of the compound test well; cell control is the average of the absorbances of the cell control wells; and virus control is the average of the absorbances of the virus control wells.
4.2. Dose-response curves were plotted using GraphPad Prism software and the half maximal effective concentration (EC50) of the assay compounds was determined.
On the technique in general: Damage to the host cells serves as the signal in cytopathic effect assays.
With `Cc1nc(N(C)C(=O)[C@H]2CCCc3cc(-c4ccccn4)ccc32)sc1S(N)(=O)=O` [WX031], the EC50 is 770 nM. For `Cc1nc(N(C)C(=O)C2Cc3ccc(-c4cccc(N(C)C)n4)cc3C2)sc1S(=O)(=O)NC1CC1` (centres unmarked) [WX142], the concentration giving a half-maximal response (EC50) was determined as 150 nM. Regarding `Cc1nc(N(C)C(=O)C2CCc3ccc(-c4ccccn4)cc3C2)sc1S(N)(=O)=O` (centres unmarked) [WX133], the EC50 was determined as 140 nM. Still for that read-out and setting: with `Cc1nc(N(C)C(=O)N2Cc3ccc(-c4ccccn4)cc3C2)sc1S(N)(=O)=O` [WX042] the figure was 42 nM. For `Cc1nc(N(C)C(=O)[C@@H]2Cc3ccc(-c4ncccc4F)cc3C2)sc1S(N)(=O)=O` [WX155], the 50% effective concentration (EC50) came to 24 nM. As to `Cc1nc(N(C)C(=O)C2Cc3ccc(-c4nccs4)cc3C2)sc1S(N)(=O)=O` (centres unmarked) [WX130], the EC50 was 17 nM. On to `CC(=O)OCC1(C(=O)N(C)c2nc(C)c(S(N)(=O)=O)s2)Cc2ccc(-c3ccccn3)cc2C1` (centres unmarked) [WX072], for which the EC50 came to 360 nM. As to `Cc1nc(N(C)C(=O)C2(CO)Cc3ccc(-c4ccccn4)cc3C2)sc1S(N)(=O)=O` (centres unmarked) [WX073], the EC50 was 120 nM. As to `Cc1nc(N(C)C(=O)[C@H]2Cc3ccc(-c4cccc(N(C)C)n4)cc3C2)sc1S(N)(=O)=O` [WX148], the EC50 came to 44 nM. Turning to `Cc1nc(N(C)C(=O)C2Cc3ccc(-c4ccccn4)cc3C2)sc1S(N)(=O)=O` (single isomer, unassigned) [WX037], the EC50 turned out to be 7 nM. Take `Cc1nc(N(C)C(=O)[C@@H]2Cc3ccc(-c4cccc(N(C)C)n4)cc3C2)sc1S(N)(=O)=O` [WX149]: the EC50 worked out at 550 nM. With `COc1cccc(-c2ccc3c(c2)CC(C(=O)N(C)c2nc(C)c(S(N)(=O)=O)s2)C3)n1` (centres unmarked) [WX129], the EC50 amounted to 46 nM.

As for `Cc1nc(N(C)C(=O)N2CCc3ccc(-c4ccccn4)cc3C2)sc1S(N)(=O)=O` [WX128], the EC50 worked out at 140 nM. The same measure, in the same setting: with `Cc1nc(N(C)C(=O)[C@H]2Cc3ccc(-c4cccc(N)n4)cc3C2)sc1S(=O)(=O)NC1CC1` [WX152] the figure was 7 nM; with `Cc1nc(N(C)C(=O)C2Cc3cc(Cl)c(-c4ccccn4)cc3C2)sc1S(N)(=O)=O` (centres unmarked) [WX156], 650 nM. For the molecule `Cc1nc(N(C)C(=O)[C@@H]2Cc3ccc(-c4cccc(N)n4)cc3C2)sc1S(N)(=O)=O` [WX151], the EC50 was determined as 230 nM. Regarding `Cc1nc(N(C)C(=O)[C@H]2Cc3ccc(-c4cccc(N)n4)cc3C2)sc1S(N)(=O)=O` [WX150], the EC50 is 12 nM. In the case of `Cc1nc(N(C)C(=O)[C@H]2CCc3cc(-c4ccccn4)ccc32)sc1S(N)(=O)=O` [WX018], the half-maximal effective concentration (EC50) was 250 nM.

With `Cc1nc(N(C)C(=O)C2Cc3ccc(-c4ccccn4)cc3C2)sc1S(=O)(=O)NC1CC1` (centres unmarked) [WX043], the EC50 was 9 nM.

Regarding `Cc1nc(N(C)C(=O)[C@H]2Cc3ccc(-c4ncccc4F)cc3C2)sc1S(N)(=O)=O` [WX154], the EC50 worked out at 310 nM. Regarding `Cc1cccc(-c2ccc3c(c2)C[C@H](C(=O)N(C)c2nc(C)c(S(N)(=O)=O)s2)C3)n1` [WX147], the EC50 was found to be 780 nM. With `Cc1nc(N(C)C(=O)C2(C)Cc3ccc(-c4ccccn4)cc3C2)sc1S(N)(=O)=O` (centres unmarked) [WX074], the EC50 came to 43 nM.

Consider `Cc1nc(N(C)C(=O)[C@@H]2CCc3cc(-c4ccccn4)ccc32)sc1S(N)(=O)=O` [WX017], for which the EC50 was found to be 46 nM.

As for `Cc1nc(N(C)C(=O)[C@@H]2CCCc3cc(-c4ccccn4)ccc32)sc1S(N)(=O)=O` [WX030], the EC50 worked out at 950 nM. For `Cc1nc(N(C)C(=O)C2Cc3ccc(-c4ccccn4)cc3C2)sc1S(N)(=O)=O` (centres unmarked) [WX036], the EC50 was above 1000 nM. `Cc1cccc(-c2ccc3c(c2)C[C@@H](C(=O)N(C)c2nc(C)c(S(N)(=O)=O)s2)C3)n1` [WX146]: the EC50 is 12 nM.

In the case of `Cc1nc(N(C)C(=O)C2COc3ccc(-c4ccccn4)cc3C2)sc1S(N)(=O)=O` (centres unmarked) [WX131], the EC50 came out at 130 nM.

Consider `Cc1nc(N(C)C(=O)[C@@H]2Cc3ccc(-c4cccc(N)n4)cc3C2)sc1S(=O)(=O)NC1CC1` [WX153], for which the EC50 stood at 810 nM. On the same count and under the same terms, as for `Cc1nc(N(C)C(=O)C2Cc3ccc(Oc4ccccn4)cc3C2)sc1S(N)(=O)=O` (centres unmarked) [WX144], the figure is 410 nM.

The same data set, now with this note: read-out: HSV-1 cytopathic effect EC50; HSV-1 GHSV-UL46 in Vero E6 cells, 5 days culture, CCK8 readout.
For the molecule `Cc1nc(N(C)C(=O)C2Cc3cc(F)c(-c4ccccn4)cc3C2)sc1S(N)(=O)=O` (centres unmarked) [WX158], the EC50 is above 1000 nM. On to `Cc1nc(N(C)C(=O)C2Cc3cc(F)c(-c4ccccn4)cc3C2)sc1S(N)(=O)=O` (centres unmarked) [WX159], for which the EC50 was 17 nM.

Tested on in the next data set: not listed separately
The data set is described as follows: Pharmacokinetics of compounds in mice in vivo. As to conditions: male, mouse, in vivo; Balb/c mice, oral administration (gavage) 1.0 mg/kg; read-out: Bioavailability F. The protocol: Objective: To test the pharmacokinetics of compounds in mice in vivo.
Balb/c mice (male, 18-22 g, 6-8 weeks old, Shanghai Slack)
The pharmacokinetics profile of the compound in rodent was tested using a standard protocol after intravenous and oral administrations. The candidate compound was prepared as a corresponding solution, which was administered as a single intravenous injection (1.0 mg/kg, 5% DMSO/95% 20% hydroxypropyl-β-cyclodextrin) or gavage (1.0 mg/kg, 0.5% methyl Cellulose MC4000). The whole blood samples were collected within 24 hours, centrifuged at 3000 g for 15 minutes, and plasma samples were obtained by separating the supernatant. 4 times volume of acetonitrile solution containing an internal standard was added to precipitate proteins. After centrifugation, the supernatant was collected, to which an equal volume of water was added, and further centrifuged to collect the supernatant. The LC-MS/MS analysis method was used to quantitatively analyze the plasma concentration, and the pharmacokinetics parameters, such as peak concentration, peak time, clearance rate, half-life, area under the curve, and bioavailability were calculated.
With `Cc1nc(N(C)C(=O)Cc2ccc(-c3ccccn3)cc2)sc1S(N)(=O)=O` [Pritelivir, reference compound], the bioavailability was determined as 100%.

The same data set, now with this note: male, mouse, in vivo; Balb/c mice, oral administration (gavage) 1.0 mg/kg; read-out: Concentration Integral AUC.
With `Cc1nc(N(C)C(=O)Cc2ccc(-c3ccccn3)cc2)sc1S(N)(=O)=O` [Pritelivir, reference compound], the AUC turned out to be 129 µM·h.

Staying with this data set, now noted: male, mouse, in vivo; Balb/c mice, single intravenous injection 1.0 mg/kg.
In turn, `Cc1nc(N(C)C(=O)Cc2ccc(-c3ccccn3)cc2)sc1S(N)(=O)=O` [Pritelivir, reference compound] gave a clearance of 0.4 mL/min/kg.

Staying with this data set, now noted: male, mouse, plasma; Balb/c mice, oral administration (gavage) 1.0 mg/kg; read-out: Bioavailability F.
Consider `Cc1nc(N(C)C(=O)C2Cc3ccc(-c4ccccn4)cc3C2)sc1S(N)(=O)=O` (single isomer, unassigned) [WX037], for which the bioavailability came to 75%.

Staying with this data set, now noted: male, mouse, plasma; Balb/c mice, oral administration (gavage) 1.0 mg/kg; read-out: Concentration Integral AUC.
With `Cc1nc(N(C)C(=O)C2Cc3ccc(-c4ccccn4)cc3C2)sc1S(N)(=O)=O` (single isomer, unassigned) [WX037], the AUC was found to be 24.4 µM·h.

Staying with this data set, now noted: male, mouse, plasma; Balb/c mice, single intravenous injection 1.0 mg/kg.
In turn, `Cc1nc(N(C)C(=O)C2Cc3ccc(-c4ccccn4)cc3C2)sc1S(N)(=O)=O` (single isomer, unassigned) [WX037] registered a clearance of 1.2 mL/min/kg.

The data set is the same for the next values; noted with them: male, mouse, plasma; Balb/c mice, single intravenous injection 1.0 mg/kg; read-out: Half life T1/2 (converted).
In the case of `Cc1nc(N(C)C(=O)C2Cc3ccc(-c4ccccn4)cc3C2)sc1S(N)(=O)=O` (single isomer, unassigned) [WX037], the half-life is 6 h.

As a reminder, the EC50 is the concentration at which the effect is half-maximal. The bioavailability is the share of a dose that reaches the circulation, judged against a reference dose that is usually intravenous. The clearance is the rate of elimination divided by the concentration. High values mean efficient removal, low ones inefficient removal.

The record behind these values is patent publication US10647710B2, “Thiazole derivative and applications thereof” (Medshine Discovery Inc., priority 2017, dated 2020).
